In PubChem BioAssay AID330 (DTP/NCI, 2004):
Values joined by “and” are separate entries in the source; they are usually repeats but may differ in a detail not shown here. Identical values can stand only once. Inconclusive results and toxic doses are left out.

Tested on: P388 leukemia ip, CD2F1 mice, survival T/C
Experiment: NCI In Vivo Anticancer Drug Screen. Data for tumor model P388 Leukemia (intraperitoneal) in CD2F1 (CDF1) mice
Settings: endpoint: median survival time, higher = longer survival
Outline: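 Mice carrying the transplanted tumor received test compound or vehicle. Survival was recorded in each group, and the value is the treated-group measurement divided by that of the vehicle-treated control group.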

[1] = dose: 25.0 mg/kg/injection, schedule: Q04DX003 (ip), vehicle: saline with Tween-80
[2] = dose: 50.0 mg/kg/injection, schedule: Q01DX009 (ip), vehicle: saline with Tween-80
[3] = dose: 100.0 mg/kg/injection, schedule: Q04DX003 (ip), vehicle: saline with Tween-80
[4] = dose: 100.0 mg/kg/injection, schedule: Q01DX009 (ip), vehicle: saline with Tween-80
[5] = dose: 200.0 mg/kg/injection, schedule: Q01DX009 (ip), vehicle: saline with Tween-80

Cn1c(=O)c2nsnc2n(C)c1=O
T/C (dose: 50.0 mg/kg/injection, schedule: Q04DX002 (ip), vehicle: Klucel (hydroxypropylcellulose) (HPC)): 110 % of control | T/C (dose: 100.0 mg/kg/injection, schedule: Q04DX002 (ip), vehicle: Klucel (hydroxypropylcellulose) (HPC)): 100 % of control and 110 % of control | T/C (dose: 200.0 mg/kg/injection, schedule: Q04DX002 (ip), vehicle: Klucel (hydroxypropylcellulose) (HPC)): 107 % of control

COc1cc2cc(-c3ccccn3)nc(N)c2cc1OC
T/C (dose: 60.0 mg/kg/injection, schedule: Q01DX005 (ip), vehicle: saline with Tween-80): 100 % of control | T/C (dose: 120.0 mg/kg/injection, schedule: Q01DX005 (ip), vehicle: saline with Tween-80): 101 % of control

COc1cccc2c1C(=O)c1c(O)c3c(c(O)c1C2=O)C[C@@](O)(C(C)=O)[C@@H](OC)[C@@H]3OC1CC(N)C(O)C(C)O1 (stereo not given in full)
T/C (dose: 0.6 mg/kg/injection, schedule: Q04DX003 (ip), vehicle: water): 103 % of control | T/C (dose: 1.2 mg/kg/injection, schedule: Q04DX003 (ip), vehicle: water): 122 % of control | T/C (dose: 2.4 mg/kg/injection, schedule: Q04DX003 (ip), vehicle: water): 108 % of control | T/C (dose: 2.5 mg/kg/injection, schedule: Q04DX003 (ip), vehicle: water): 108 % of control | T/C (dose: 4.8 mg/kg/injection, schedule: Q04DX003 (ip), vehicle: water): 123 % of control | T/C (dose: 5.0 mg/kg/injection, schedule: Q04DX003 (ip), vehicle: water): 108 % of control

O=C([O][Hg][CH2]C1COC([CH2][Hg][O]C(=O)c2ccccc2)CO1)c1ccccc1 (stereo not given)
T/C (dose: 25.0 mg/kg/injection, schedule: Q01DX009 (ip), vehicle: saline with Tween-80): 120 % of control | T/C [1]: 104 % of control | T/C [2]: 120 % of control | T/C (dose: 50.0 mg/kg/injection, schedule: Q04DX003 (ip), vehicle: saline with Tween-80): 90 % of control | T/C [3]: 95 % of control

CCn1nccc1N
T/C (dose: 6.25 mg/kg/injection, schedule: Q01DX005 (ip), vehicle: saline with Tween-80): 98 % of control | T/C (dose: 12.5 mg/kg/injection, schedule: Q01DX005 (ip), vehicle: saline with Tween-80): 106 % of control | T/C (dose: 25.0 mg/kg/injection, schedule: Q01DX005 (ip), vehicle: saline with Tween-80): 104 % of control

O=S(=O)(O)N(O)c1ccccc1
T/C (dose: 25.0 mg/kg/injection, schedule: Q01DX001 (ip), vehicle: saline): 103 % of control and 97 % of control | T/C (dose: 50.0 mg/kg/injection, schedule: Q01DX001 (ip), vehicle: saline): 113 % of control and 95 % of control | T/C (dose: 100.0 mg/kg/injection, schedule: Q01DX001 (ip), vehicle: saline): 106 % of control and 124 % of control | T/C (dose: 200.0 mg/kg/injection, schedule: Q01DX001 (ip), vehicle: saline): 94 % of control

CCOC(=O)COc1ccc(/C=C(\C)[N+](=O)[O-])c2ccccc12
T/C [2]: 99 % of control | T/C [4]: 91 % of control | T/C [5]: 100 % of control

Cc1ccccc1-c1nc2c(N)nc(N)nc2nc1N
T/C [3]: 109 % of control | T/C [5]: 172 % of control | T/C (dose: 200.0 mg/kg/injection, schedule: Q04DX003 (ip), vehicle: saline with Tween-80): 109 % of control | T/C (dose: 264.0 mg/kg/injection, schedule: Q04DX003 (ip), vehicle: saline with Tween-80): 113 % of control | T/C (dose: 300.0 mg/kg/injection, schedule: Q01DX009 (ip), vehicle: saline with Tween-80): 109 % of control | T/C (dose: 400.0 mg/kg/injection, schedule: Q04DX003 (ip), vehicle: saline with Tween-80): 113 % of control

C[Si](C)(C)CSCCO
T/C (dose: 50.0 mg/kg/injection, schedule: Q01DX005 (ip), vehicle: saline with Tween-80): 106 % of control | T/C (dose: 100.0 mg/kg/injection, schedule: Q01DX005 (ip), vehicle: saline with Tween-80): 104 % of control | T/C (dose: 200.0 mg/kg/injection, schedule: Q01DX005 (ip), vehicle: saline with Tween-80): 100 % of control

c1ccc(C[n+]2ccc3ccccc3c2)cc1
T/C (dose: 6.25 mg/kg/injection, schedule: Q04DX003 (ip), vehicle: saline with Tween-80): 101 % of control | T/C (dose: 12.5 mg/kg/injection, schedule: Q04DX003 (ip), vehicle: saline with Tween-80): 100 % of control | T/C [1]: 101 % of control

COc1cc(O)c(/C=N/Nc2ccc3ccccc3n2)c(OC)c1
T/C (dose: 100.0 mg/kg/injection, schedule: Q01DX001 (ip), vehicle: saline with Tween-80): 91 % of control | T/C (dose: 200.0 mg/kg/injection, schedule: Q01DX001 (ip), vehicle: saline with Tween-80): 104 % of control | T/C (dose: 400.0 mg/kg/injection, schedule: Q01DX001 (ip), vehicle: saline with Tween-80): 89 % of control

CCOC(=O)C12OC(=O)CC(NC1C(=O)OC(C)(C)C)C2O (stereo not given)
T/C (dose: 60.0 mg/kg/injection, schedule: Q01DX005 (ip), vehicle: saline): 98 % of control | T/C (dose: 120.0 mg/kg/injection, schedule: Q01DX005 (ip), vehicle: saline): 91 % of control | T/C (dose: 240.0 mg/kg/injection, schedule: Q01DX005 (ip), vehicle: saline): 104 % of control

Cc1ccc(S(=O)(=O)CC(=O)c2ccc(Br)cc2)cc1
T/C [4]: 92 % of control
